The subject of assay [1] is S. Typhimurium ATCC14028. The experiment in a line: Growth inhibition of planktonic cells in the peg assay plate (OD600). The class given is cell-based, Salmonella Typhimurium. The note with it: Salmonella enterica, ATCC14028, 16° C.
Assay [2] has as its system S. Typhimurium SL1344. Described as above. The class given is cell-based. The note with it: Salmonella enterica, SL1344, 16° C.
The test system of assay [3] is S. Typhimurium ATCC14028. The assay can be described thus: Static peg assay for prevention of biofilm formation (Calgary device, crystal violet). The class given is cell-based, Salmonella Typhimurium. The gist of the method:
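Calgary 96-peg device, ca. 10^6 cells of ATCC14028 per well in TSB 1/20 for 24 h at 25° C (or 48 h at 16° C, medium and compound renewed at 24 h), or in CFA broth for 24 h at 37° C, static, with two-fold compound dilutions. Crystal violet stain, acetic acid extraction, OD570. IC50 from 2–3 independent experiments.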

Assay [4] concerns S. Typhimurium SL1344. Described as above. Format: cell-based. The note with it: Salmonella enterica, SL1344, 16° C., read-out: IC50 biofilm inhibition. How it is done:
After an incubation period of 24 hours at 25° C. or 37° C. or 48 hours at 16° C. the biofilms were visualized by crystal violet staining. […] Biofilm formation assays were carried out at 16° C., 25° C. and 37° C. […] Subsequently, an overnight culture of S. […] The pegged lid was placed on the microtiter plate and the plate was incubated for 48 hours at 16° C. or for 24 hours at 25° C. without shaking. During this incubation period biofilms were formed on the surface of the pegs. In case of the assay at 16° C., after 24 hours the lid was transferred into a new plate with medium and the specific molecules used for testing. […] The remaining attached bacteria were stained for 30 minutes with 200 μl 0.1% (w/v) crystal violet in an isopropanol/methanol/PBS solution (v/v 1:1:18). Excess stain was rinsed off by placing the pegs in a 96-well plate filled with 200 μl distilled water per well. After the pegs were air dried (30 min), the dye bound to the adherent cells was extracted with 30% glacial acetic acid (200 μl). The OD570 of each well was measured using the VERSAmax microtiter plate reader.

The test system of assay [5] is Salmonella Typhimurium ATCC 14028. The experiment in a line: Antibacterial activity: growth inhibition, OD600 after 24 h (GIC50). The class given is cell-based. The note with it: 25° C. The procedure: Evaluation of antibacterial-inhibitory activity of some substituted 2-amino-1H-imidazoles of the invention was carried out by diluting an overnight culture of Salmonella Typhimurium ATCC 14028 into a liquid medium. 200 μl of the diluted overnight culture was added to each well of a microtiter plate together with different concentrations of the test compound (1/2 dilution series of the compound). After an incubation of 24 hours the optical density at 600 nm of each well was determined with a microtiter plate reader.
Starting from a 40 mM stock solution of each compound in DMSO, two-fold serial dilutions in 100 μl liquid broth per well were prepared in dublicate in sterile transparant microtiter plates. The broth used was TSB 1/20 for measurements at 25° C. and CFA (in case of Salmonella Typhimurium) and LBNS (in case of Pseudomonas aeruginosa) for measurements at 37° C. Subsequently an overnight culture of the bacteria (S. Typhimurium ATCC14028 or P. aeruginosa PA14) was diluted 1/200 into the corresponding liquid broth and 100 μl was added to each well of the microtiterplate resulting in a total amout of 200 μl medium per well. After an incubation of 24 hours the optical density at 600 nm of each well was determined with a microtiter plate reader (VERSAmax, Molecular Devices).
Evaluation of antibacterial-inhibitory activity of some substituted imidazo[1,2-a]pyrimidinium bromide salts of the invention was carried out by diluting an overnight culture of Salmonella Typhimurium ATCC14028 or Pseudomonas aeruginosa PA141/200 into liquid medium. 200 μl of the diluted overnight culture was added to each well of a microtiterplate together with different concentrations of the test compound (1/2 dilution series of the compound). After an incubation of 24 hours the optical density at 600 nm of each well was determined with a microtiter plate reader.

For assay [6], the system named is S. Typhimurium ATCC14028. The assay can be described thus: Bioscreen assay: influence on planktonic growth curve. As to conditions: 400 μM. Format: cell-based, Salmonella Typhimurium. The source says:
(§1) Some of the tested compounds show a concentration range in which biofilm formation is inhibited but no effect on planktonic growth is observed. These compounds are particularly interesting for prevention of biofilm formation since the development of resistance against these compounds is less likely. Table 8 indicates whether the different compounds have an effect on the planktonic growth of the bacteria at the IC50 for biofilm inhibition. To construct Table 8, the effect of the tested compounds on the growth curve of the bacteria was determined at a concentration equal to the IC50 for biofilm inhibition, by using the Bioscreen system available from Oy Growth Curves Ab Ltd). The Bioscreen device from Oy Growth Curves Ab Ltd was used for measuring the influence of the chemical compounds on the planktonic growth of Salmonella Typhimurium and Pseudomonas aeruginosa. The Bioscreen is a computer controlled incubator/reader/shaker that uses 10×10 well microtiter plates and measures light absorbance of each well at a specified wave length in function of time. An overnight culture of S. […] The broth used was TSB 1/20 for the experiments at 16° C. and 25° C. For experiments at 37° C. CFA medium was used for S. […] As a control 3 μl of the appropriate solvent (DMSO or EtOH) was also added to the plate in 3- or 4-fold. The microtiter plate was incubated in the Bioscreen device at 16° C., 25° C. or 37° C. for at least 36 hours, with continious medium shaking. The absorbance of each well was measured at 600 nm each 15 minutes. Excel was used to generate the growth curves for treated the treated wells and the untreated control wells. Some of the compounds show a concentration range in which biofilm formation is inhibited but no effect on the planktonic growth is observed. Table 14 indicates if the different compounds have an effect on the planktonic growth of the bacteria at the IC50 for biofilm inhibition. To construct this table the effect of the compounds on the growth curve of the bacteria was determined at a concentration equal to the IC50 for biofilm inhibtion, by using the Bioscreen system from Oy Growth Curves Ab Ltd.

Assay [7] has as its system S. Typhimurium ATCC14028. The description is as above. The class given is cell-based, Salmonella Typhimurium. As to conditions: planktonic growth at the IC50 for biofilm inhibition, 25° C. The arrangement: key: x: no influence on planktonic growth at the IC50 for biofilm inhibition; planktonic growth is retarded at the IC50 for biofilm inhibition.
Excerpt: as §1, with “Table 14 indicates if the different compounds have an effect on the planktonic growth of the bacteria at the IC50 for biofilm inhibition.” left out

[8] abbreviates: Salmonella enterica, ATCC14028, 16° C., read-out: IC50 biofilm inhibition.

Where only a bound is given, the exact number is not on record here.

One may read the IC50 as the concentration needed to halve the response being measured. `c1ccc(Sc2cccc3ccccc23)c(CNC2=NCCN2)c1` [Specs3-4]: the IC50 in assay [1] was determined as 82.6 µM; in assay [2], 82.6 µM; in assay [3] (setting [8]), 16.6 µM; in assay [4], 15.5 µM.

For the compound `OC1(c2ccc(F)cc2)C[n+]2cccnc2N1Cc1ccc2c(c1)OCO2.[Br-]` (stereo not drawn) [Compound 79], the IC50 amounted to 200 µM in assay [5]; 29.4 µM in assay [3] (25° C., Table 11, read-out: IC50 (biofilm formation)); 29.4 µM in assay [3] (25° C., Table 14, read-out: IC50 biofilm inhibition); 17.2 µM in assay [3] (25° C., Table 19, read-out: IC50 (biofilm formation)). The “Effect on growth at 400 μM” value in assay [6] is “∘”. Besides, the Influence on growth result in assay [7] is recorded as “∘”.

Turning to `Fc1ccccc1Sc1ccccc1CNC1=NCCN1` [Specs3-3], the IC50 in assay [1] was 265 µM; in assay [2], 265 µM; in assay [3] (setting [8]), 32.9 µM; in assay [4] it was 68.1 µM.

Turning to `O=[N+]([O-])c1cccc(C2(O)C[n+]3cccnc3N2C2CCCCCCCCCCC2)c1.[Br-]` (stereo not drawn) [R1=Cyclododecyl, R3=3-NO2Ph, R4=H, 1-cyclododecyl-2-hydroxy-2-(3-nitrophenyl)-2,3-dihydro-1H-imidazo[1,2-a]pyrimidin-4-ium bromide], the half-maximal inhibitory concentration (IC50) in assay [5] (Salmonella enterica) was 6 to 12 µM; in assay [3] (Salmonella enterica, 25° C., Table 11, read-out: IC50 (biofilm formation)), less than 6.25 µM; in assay [3] (Salmonella enterica, 25° C., Table 14, read-out: IC50 biofilm inhibition), less than 6.25 µM. Further, in assay [7], the Influence on growth result is on record as “∘”.
